{"source": "patent US11446223B2", "about": "“Anti-aging composition” (NEOPHARM CO., LTD., priority 2016, dated 2022)", "format_in_all_cases": "cell-based", "key": {"[1]": {"tested_on": "human-derived fibroblasts", "assay": "Toxicity / cell proliferation in human-derived fibroblasts", "conditions": "20 uM"}, "human fibroblasts": {"tested_on": "human fibroblasts", "assay": "Type-1 collagen synthesis in human fibroblasts (PICP EIA kit)", "conditions": "24 hours", "protocol": "N-(1,3-dihydroxy propan-2-yl)-2-ethylhexanamide was added to a culture medium of human fibroblasts (DMEM medium, 10% fetal bovine serum, 1% antibiotics) to confirm the effect of accelerating type-1 collagen synthesis in a cell level. The measurement of the synthesized collagen was qualified using a procollagen type I C-peptide enzyme immunoassay kit (PICP EIA kit).\nThe human fibroblast culture medium was used to aliquot the human-derived fibroblasts (human fibroblasts) into 6 wells at 2×10^5 cell/well. After cell adhesion was confirmed, the culture medium was treated with 2 ml of N-(1,3-dihydroxy propan-2-yl)-2-ethylhexanamide as an effective component (anti-aging composition) per each well, at a concentration of 20 uM. After the culture medium was cultured in an incubator under a condition of 37° C. and 5% CO2 for 24 hours, type-1 collagen which is related to a wrinkle forming factor was measured in a cell extract. […]\nThe effect of accelerating type-1 collagen synthesis was confirmed in the same manner as in Example 1, except that the effective component was not used (a negative control). In addition, type-1 collagen synthesis ability relative to the negative control was calculated as a ratio, and illustrated as a rate of increase (see Table 1 and FIG. 1)."}, "[2]": {"tested_on": "Artificial skin (EpiDermFT)", "assay": "Collagen synthesis in artificial skin, Masson's Trichrome staining", "conditions": "100 μl at 1% on artificial skin surface, 24 hours, versus PBS (Comparative Example 2)", "protocol": "Artificial skin (EpiDermFT™ from MatTek, Ashland, USA) was purchased, and stabilized in an exclusive medium (EFT-400) for 18 hours. On the surface of the artificial skin, 100 μl of N-(1,3-dihydroxy propan-2-yl)-2-ethylhexanamide as an effective component (anti-aging composition) at a concentration of 1% was applied. After 24 hours, the artificial skin tissue was immobilized with 10% formaldehyde, embedded with paraffin, and sliced at 5 μm to obtain a sliced tissue which was used for confirming the effect of accelerating collagen synthesis (see FIG. 2).\nThe artificial skin was stabilized in the same manner as in Example 2, and coated with only 100 μl of PBS without an effective component. After 24 hours, the artificial skin tissue was immobilized with 10% formaldehyde, embedded with paraffin, and sliced at 5 μm to obtain a sliced tissue which was used for confirming the effect of accelerating collagen synthesis."}}}
{"smiles": "CCCCC(CC)C(=O)NC(CO)CO", "note": "(stereo not shown) [Example 1, N-(1,3-dihydroxypropan-2-yl)-2-ethylhexanamide]", "values": [{"measurement": "toxicity", "setting": "[1]", "value": "not toxic"}, {"measurement": "Type-1 collagen concentration (20 uM)", "setting": "human fibroblasts; 20 uM compound, cell extract, human fibroblasts", "value": 0.017}, {"measurement": "Rate of increase (%)", "setting": "human fibroblasts; type-1 collagen relative to negative control (Comparative Example 1), 20 uM", "value": 242, "unit": "%"}, {"measurement": "effect of accelerating collagen synthesis (Masson's Trichrome staining)", "setting": "[2]", "value": "accelerated collagen synthesis much more"}]}
